Test results published in patent EP4273147A1, “SUBSTITUTED SPIROLACTAMS, SALTS THEREOF AND THEIR USE AS HERBICIDALLY ACTIVE SUBSTANCES” (Bayer Aktiengesellschaft, priority 2022, dated 2023).

Tests used:
[1] = tested on: ABUTH; test: Herbicidal pre-emergence action (Table A1); format: in vivo, Abutilon theophrasti; details: application rate 320 g/ha; visual grading after ca. 3 weeks vs untreated controls (100% = plants have died off, 0% = as control plants)
In short: (§1)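 Weed seeds are sown into sandy loam in pots and covered with soil, with two species per pot, one monocot and one dicot.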

[2] = tested on: ECHCG; test: Herbicidal pre-emergence action (Table A2); format: in vivo, Echinochloa crus-galli; details: application rate 320 g/ha; visual grading after ca. 3 weeks
In short: as §1

[3] = tested on: LOLRI; test: Herbicidal pre-emergence action (Table A3); format: in vivo, Lolium rigidum; details: application rate 320 g/ha; visual grading after ca. 3 weeks
In short: as §1

[4] = tested on: MATIN; test: Herbicidal pre-emergence action (Table A4); format: in vivo, Matricaria inodora; details: application rate 320 g/ha; visual grading after ca. 3 weeks
In short: as §1

[5] = tested on: SETVI; test: Herbicidal pre-emergence action (Table A5); format: in vivo, Setaria viridis; details: application rate 320 g/ha; visual grading after ca. 3 weeks
In short: as §1

[6] = tested on: STEME; test: Herbicidal pre-emergence action (Table A6); format: in vivo, Stellaria media; details: application rate 320 g/ha; visual grading after ca. 3 weeks
In short: as §1

[7] = tested on: POAAN; test: Herbicidal pre-emergence action (Table A7); format: in vivo, Poa annua; details: application rate 320 g/ha; visual grading after ca. 3 weeks
In short: as §1

[8] = tested on: AMARE; test: Herbicidal pre-emergence action (Table A8); format: in vivo, Amaranthus retroflexus; details: application rate 1280 g/ha; visual grading after ca. 3 weeks vs untreated controls (100% = plants have died off, 0% = as control plants)
In short: as §1

[9] = tested on: ALOMY; test: Herbicidal pre-emergence action (Table A9); format: in vivo, Alopecurus myosuroides; details: application rate 320 g/ha; visual grading after ca. 3 weeks
In short: as §1

[10] = tested on: KCHSC; test: Herbicidal pre-emergence action (Table A10); format: in vivo, Kochia scoparia; details: application rate 1280 g/ha; visual grading after ca. 3 weeks
In short: as §1

[11] = tested on: VERPE; test: Herbicidal pre-emergence action (Table A11); format: in vivo, Veronica persica; details: application rate 320 g/ha; visual grading after ca. 3 weeks
In short: as §1

[12] = tested on: ABUTH; test: Herbicidal post-emergence action (Table B1); format: in vivo, Abutilon theophrasti; details: application rate 1280 g/ha; treated at one-leaf stage; rated visually after about 3 weeks vs untreated controls (100% = plants have died, 0% = like control plants)
In short: (§2)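 Visual rating of activity versus untreated plants about 3 weeks after treatment: 0% means no difference from controls, 100% means complete kill. Test weeds were raised from seed in sandy loam under controlled greenhouse conditions and sprayed at the one-leaf stage.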

[13] = tested on: ALOMY; test: Herbicidal post-emergence action (Table B2); format: in vivo, Alopecurus myosuroides; details: application rate 320 g/ha; rated visually after about 3 weeks
Method: (§3) Seeds of mono- and dicotyledonous weed plants were placed in plastic pots in sandy loam soil (doubly sown with in each case one species of mono- or dicotyledonous weed plants per pot), covered with soil and cultivated in a greenhouse under controlled growth conditions. 2 to 3 weeks after sowing, the test plants were treated at the one-leaf stage. […] After the test plants had been kept in the greenhouse under optimum growth conditions for about 3 weeks, the activity of the preparations was rated visually in comparison to untreated controls. For example, 100% activity = the plants have died, 0% activity = like control plants.

[14] = tested on: ECHCG; test: Herbicidal post-emergence action (Table B3); format: in vivo, Echinochloa crus-galli; details: application rate 320 g/ha; rated visually after about 3 weeks
In short: as §2

[15] = tested on: LOLRI; test: Herbicidal post-emergence action (Table B5); format: in vivo, Lolium rigidum; details: application rate 1280 g/ha; rated visually after about 3 weeks
Method: as §3

[16] = tested on: MATIN; test: Herbicidal post-emergence action (Table B6); format: in vivo, Matricaria inodora; details: application rate 1280 g/ha; rated visually after about 3 weeks
In short: as §2

[17] = tested on: POAAN; test: Herbicidal post-emergence action (Table B7); format: in vivo, Poa annua; details: application rate 320 g/ha
In short: as §2

[18] = tested on: SETVI; test: Herbicidal post-emergence action (Table B8); format: in vivo, Setaria viridis; details: application rate 1280 g/ha
In short: as §2

[19] = tested on: STEME; test: Herbicidal post-emergence action (Table B9); format: in vivo, Stellaria media; details: application rate 1280 g/ha
Method: as §3

[20] = tested on: VERPE; test: Herbicidal post-emergence action (Table B10); format: in vivo, Veronica persica; details: application rate 320 g/ha
In short: as §2

[21] = tested on: AMARE; test: Herbicidal post-emergence action (Table B11); format: in vivo, Amaranthus retroflexus; details: application rate 1280 g/ha
In short: as §2

[22] = tested on: ABUTH; test: Herbicidal pre-emergence action, section C (Table C1); format: in vivo, Abutilon theophrasti; details: application rate 320 g/ha; visual grading after ca. 3 weeks
[23] = tested on: ALOMY; test: Herbicidal pre-emergence action, section C (Table C2); format: in vivo, Alopecurus myosuroides; details: application rate 320 g/ha; visual grading after ca. 3 weeks
[24] = tested on: ECHCG; test: Herbicidal pre-emergence action, section C (Table C6); format: in vivo, Echinochloa crus-galli; details: application rate 80 g/ha; visual grading after ca. 3 weeks
[25] = tested on: LOLRI; test: Herbicidal pre-emergence action, section C (Table C7); format: in vivo, Lolium rigidum; details: application rate 80 g/ha; visual grading after ca. 3 weeks
[26] = tested on: MATIN; test: Herbicidal pre-emergence action, section C (Table C8); format: in vivo, Matricaria inodora; details: application rate 320 g/ha; visual grading after ca. 3 weeks
[27] = tested on: POLCO; test: Herbicidal pre-emergence action, section C (Table C9); format: in vivo, Polygonum convolvulus; details: application rate 320 g/ha; visual grading after ca. 3 weeks
[28] = tested on: SETVI; test: Herbicidal pre-emergence action, section C (Table C10); format: in vivo, Setaria viridis; details: application rate 80 g/ha; visual grading after ca. 3 weeks
[29] = tested on: VERPE; test: Herbicidal pre-emergence action, section C (Table C11); format: in vivo, Veronica persica; details: application rate 320 g/ha; visual grading after ca. 3 weeks
[30] = tested on: VIOTR; test: Herbicidal pre-emergence action, section C (Table C12); format: in vivo, Viola tricolor; details: application rate 80 g/ha; visual grading after ca. 3 weeks
[31] = tested on: TRZAS; test: Pre-emergence effects on crop plants (Table D2); format: in vivo, Triticum aestivum; details: crop plant; application rate 80 g/ha; visual grading after ca. 3 weeks
[32] = tested on: BRSNW; test: Pre-emergence effects on crop plants (Table D5); format: in vivo, Brassica napus; details: crop plant; application rate 80 g/ha; visual grading after ca. 3 weeks
From the text: Seeds of mono- and dicotyledonous weed plants and crop plants were sown, in plastic or organic planting pots, in sandy loam and covered with soil. The compounds according to the invention, formulated in the form of wettable powders (WP) or as emulsifiable concentrates (EC), were applied to the surface of the covering soil as aqueous suspension or emulsion, with the addition of 0.5% of an additive, at an application rate of 600 1 of water/ha (converted).
Following treatment, the pots were placed in a greenhouse and kept under optimum growth conditions for the test plants.

[33] = tested on: ALOMY; test: Herbicidal post-emergence action, section E (Table E2); format: in vivo, Alopecurus myosuroides; details: application rate 320 g/ha; assessed visually after ca. 3 weeks
From the text: (§4) 2 to 3 weeks after sowing, the test plants were sprayed in the single-leaf stage.

[34] = tested on: ECHCG; test: Herbicidal post-emergence action, section E (Table E5); format: in vivo, Echinochloa crus-galli; details: application rate 80 g/ha; assessed visually after ca. 3 weeks
From the text: as §4

[35] = tested on: SETVI; test: Herbicidal post-emergence action, section E (Table E8); format: in vivo, Setaria viridis; details: application rate 320 g/ha; assessed visually after ca. 3 weeks
From the text: as §4

[36] = tested on: VERPE; test: Herbicidal post-emergence action, section E (Table E9); format: in vivo, Veronica persica; details: application rate 320 g/ha; assessed visually after ca. 3 weeks
From the text: as §4

[37] = tested on: VIOTR; test: Herbicidal post-emergence action, section E (Table E10); format: in vivo, Viola tricolor; details: application rate 320 g/ha; assessed visually after ca. 3 weeks
From the text: as §4

[38] = tested on: ZEAMX; test: Post-emergence effects on crop plants (Table F1); format: in vivo, Zea mays; details: application rate 80 g/ha, crop plant ZEAMX
From the text: as §4

[39] = tested on: TRZAS; test: Post-emergence effects on crop plants (Table F2); format: in vivo, Triticum aestivum; details: application rate 80 g/ha, crop plant TRZAS
From the text: as §4

[40] = tested on: ORYZA; test: Post-emergence effects on crop plants (Table F3); format: in vivo, Oryza sativa; details: application rate 320 g/ha, crop plant ORYZA
From the text: as §4

[41] = tested on: GLXMA; test: Post-emergence effects on crop plants (Table F4); format: in vivo, Glycine max; details: application rate 80 g/ha, crop plant GLXMA
From the text: as §4

[42] = tested on: BRSNW; test: Post-emergence effects on crop plants (Table F5); format: in vivo, Brassica napus; details: application rate 80 g/ha, crop plant BRSNW
From the text: as §4

[43] = tested on: ORYZA; test: Pre-emergence effects on crop plants (Table D3); details: crop plant; application rate 80 g/ha; visual grading after ca. 3 weeks

pre-emergence activity against TRZAS [31]: 20% | pre-emergence activity against BRSNW [32]: 0% | pre-emergence activity against ORYZA [43]: 20%
Structure (SMILES): O=C1N(Cc2ccccc2F)CCCC12CCCN(Cc1ccccc1F)C2=O (racemic) [I-005]
pre-emergence activity against ABUTH [1]: 90% | pre-emergence activity against ECHCG [2]: 100% | pre-emergence activity against LOLRI [3]: 100% | pre-emergence activity against MATIN [4]: 100% | pre-emergence activity against SETVI [5]: 100% | pre-emergence activity against STEME [6]: 90% | pre-emergence activity against POAAN [7]: 100% | pre-emergence activity against AMARE [8]: 90% | pre-emergence activity against ALOMY [9]: 90% | pre-emergence activity against KCHSC [10]: 90% | pre-emergence activity against VERPE [11]: 100% | post-emergence activity against ABUTH [12]: 90% | post-emergence activity against ALOMY [13]: 90% | post-emergence activity against ECHCG [14]: 100% | post-emergence activity against LOLRI [15]: 90% | post-emergence activity against MATIN [16]: 100% | post-emergence activity against POAAN [17]: 100% | post-emergence activity against SETVI [18]: 100% | post-emergence activity against STEME [19]: 90% | post-emergence activity against VERPE [20]: 90% | post-emergence activity against AMARE [21]: 100% | pre-emergence activity against ABUTH [22]: 80% | pre-emergence activity against ALOMY [23]: 100% | pre-emergence activity against ECHCG [24]: 100% | pre-emergence activity against LOLRI [25]: 80% | pre-emergence activity against MATIN [26]: 90% | pre-emergence activity against POLCO [27]: 80% | pre-emergence activity against SETVI [28]: 100% | pre-emergence activity against VERPE [29]: 80% | pre-emergence activity against VIOTR [30]: 80% | post-emergence activity against ALOMY [33]: 90% | post-emergence activity against ECHCG [34]: 80% | post-emergence activity against SETVI [35]: 90% | post-emergence activity against VERPE [36]: 80% | post-emergence activity against VIOTR [37]: 80% | post-emergence activity against ZEAMX [38]: 20% | post-emergence activity against TRZAS [39]: 20% | post-emergence activity against ORYZA [40]: 0% | post-emergence activity against GLXMA [41]: 20% | post-emergence activity against BRSNW [42]: 20%
